Measured values: patent US7498441B2, “Biaryltetrahydroisoquinoline piperidines as selective MCH receptor antagonists for the treatment of obesity and related disorders” (Schering Corporation, priority 2003, dated 2009)
Where two headings read alike, the source gives them in different places.

Target: T1, MCH receptor (Homo sapiens, UniProt Q99705)
T1 construct: expressed in transfected cells; host or cells: CHO cells
Assay: MCH Receptor Binding Assay ([125I]-MCH, SPA, membranes from CHO cells expressing the MCH receptor)
Procedure: Membranes from CHO cells expressing the MCH receptor were prepared by lysing cells with 5 mM HEPES for 15 min at 4 C. Cell lysates were centrifuged ([…], 15 min) and the pellet was resuspended in 5 mM HEPES. For each 96-well plate (Microlite, Dynex Technologies), 1 mg of cell membranes were incubated with 10 mg of wheat germ agglutinin SPA beads (Amersham) for 5 min at 4 C in a volume of 10 ml of binding buffer (25 mM HEPES, 10 mM MGCl2, 10 mM NaCl, 5 mM MnCl2, 0.1% BSA). The membrane/bead mixture was centrifuged (1500×g, 3.5 min), the supernatant was aspirated, and the pellet was resuspended in 10 ml binding buffer. The centrifugation, aspiration and resuspension were then repeated. The membrane/bead mixture (100 μl) was then added to 96-well plates containing 50 μl of 500 pM [^125I]-MCH (NEN) and […] of the appropriate concentration of compound (4× the desired final concentration). Nonspecific binding was determined by including 1 μM MCH in the binding reaction. The binding reaction was incubated at room temperature for 2 h. Plates were then analyzed in a TOPCOUNT microplate scintillation counter (Packard). Data was analyzed and Ki values for the compounds of Formula 1 were determined using GraphPad Prim.

[1] = MCH Receptor Activity (Preferred Compounds), dissociation constants, read-out: Ave KiMCH
[2] = MCH Receptor Antagonist Activity, rated A/B/C, read-out: Av. MCH Ki

T1 sequence (Q99705 whole entry): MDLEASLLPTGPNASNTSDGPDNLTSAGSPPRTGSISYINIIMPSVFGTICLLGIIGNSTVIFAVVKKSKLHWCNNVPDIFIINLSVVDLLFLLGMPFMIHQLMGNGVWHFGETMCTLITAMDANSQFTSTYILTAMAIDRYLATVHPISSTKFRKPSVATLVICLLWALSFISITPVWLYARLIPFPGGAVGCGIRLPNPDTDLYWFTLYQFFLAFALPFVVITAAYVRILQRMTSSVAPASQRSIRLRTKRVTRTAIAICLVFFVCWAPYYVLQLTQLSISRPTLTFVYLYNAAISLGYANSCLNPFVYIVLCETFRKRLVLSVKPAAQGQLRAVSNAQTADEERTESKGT

Row | Ki [1] [nM] | Ki [2] [nM] | Compound
1 | 10 |  | N#Cc1cccc(-c2ccc3c(c2)CCN(CC(=O)Nc2cc(Cl)cc(Cl)c2)C3C2CCN(C3CCCCCC3)CC2)c1 (stereo not shown) [Example 22]
2 |  | > 500 | O=C(CN1CCc2cc(-c3cccc4cccnc34)ccc2C1C1CCN(C2CCCC2)CC1)Nc1cc(Cl)cc(Cl)c1 (stereo not shown) [Example 20]
3 | 23 |  | O=C(CN1CCc2cc(-c3cccnc3)ccc2C1C1CCN(C2CCCC2)CC1)Nc1cc(Cl)cc(Cl)c1 (stereo not shown) [Example 16]
4 | 24 |  | O=C(CN1CCc2cc(-c3ccncc3)ccc2C1C1CCN(C2CCCC2)CC1)Nc1cc(Cl)cc(Cl)c1 (stereo not shown) [Example 12]
5 | 6.4 |  | N#Cc1cccc(-c2ccc3c(c2)CCN(CC(=O)Nc2cc(Cl)cc(Cl)c2)C3C2CCN(C3CCOCC3)CC2)c1 (stereo not shown) [Example 24]
6 |  | 1 to 100 | O=C(CN1CCc2cc(-c3cccc(Cl)c3)ccc2C1C1CCN(C2CCCC2)CC1)Nc1cc(Cl)cc(Cl)c1 (stereo not shown) [Example 5]
7 | 10 |  | N#Cc1cccc(-c2ccc3c(c2)CCN(CC(=O)Nc2cc(Cl)cc(Cl)c2)C3C2CCN(C3CCCCC3)CC2)c1 (stereo not shown) [Example 32]
8 |  | 100 to 500 | N#Cc1ccc(-c2ccc3c(c2)CCN(CC(=O)Nc2cc(Cl)cc(Cl)c2)C3C2CCN(C3CCCC3)CC2)cc1 (stereo not shown) [Example 3]
9 |  | 100 to 500 | O=C(CN1CCc2cc(-c3cccc(C(F)(F)F)c3)ccc2C1C1CCN(C2CCCC2)CC1)Nc1cc(Cl)cc(Cl)c1 (stereo not shown) [Example 1]
10 |  | 1 to 100 | O=C(CN1CCc2cc(-c3cc(Cl)ccc3Cl)ccc2C1C1CCN(C2CCCC2)CC1)Nc1cc(Cl)cc(Cl)c1 (stereo not shown) [Example 10]
11 | 15 |  | N#Cc1cccc(-c2ccc3c(c2)CCN(CC(=O)Nc2cc(Cl)cc(Cl)c2)C3C2CCN(C3CCC3)CC2)c1 (stereo not shown) [Example 29]
12 |  | > 500 | O=C(CN1CCc2cc(-c3cccc(C(=O)O)c3)ccc2C1C1CCN(C2CCCC2)CC1)Nc1cc(Cl)cc(Cl)c1 (stereo not shown) [Example 18]
13 |  | 1 to 100 | O=C(CN1CCc2cc(-c3cccc(OC(F)(F)F)c3)ccc2C1C1CCN(C2CCCC2)CC1)Nc1cc(Cl)cc(Cl)c1 (stereo not shown) [Example 8]
14 |  | 1 to 100 | O=Cc1cccc(-c2ccc3c(c2)CCN(CC(=O)Nc2cc(Cl)cc(Cl)c2)C3C2CCN(C3CCCC3)CC2)c1 (stereo not shown) [Example 9]
15 |  | 100 to 500 | O=C(CN1CCc2cc(-c3ccc[nH]3)ccc2C1C1CCN(C2CCCC2)CC1)Nc1cc(Cl)cc(Cl)c1 (stereo not shown) [Example 15]
16 | 11.2 |  | N#Cc1cccc(-c2ccc3c(c2)CCN(CC(=O)Nc2cc(Cl)cc(Cl)c2)C3C2CCN(C3CCCC3)CC2)c1 (stereo not shown) [Example 1]
17 |  | 100 to 500 | O=C(CN1CCc2cc(-c3ccsc3)ccc2C1C1CCN(C2CCCC2)CC1)Nc1cc(Cl)cc(Cl)c1 (stereo not shown) [Example 13]
18 |  | 1 to 100 | O=C(CN1CCc2cc(-c3cccc(F)c3)ccc2C1C1CCN(C2CCCC2)CC1)Nc1cc(Cl)cc(Cl)c1 (stereo not shown) [Example 4]
19 |  | 100 to 500 | O=C(CN1CCc2cc(-c3ccccc3)ccc2C1C1CCN(C2CCCC2)CC1)Nc1cc(Cl)cc(Cl)c1 (stereo not shown) [Example 2]
20 |  | 1 to 100 | O=C(CN1CCc2cc(-c3cccc(-c4ncc[nH]4)c3)ccc2C1C1CCN(C2CCCC2)CC1)Nc1cc(Cl)cc(Cl)c1 (stereo not shown) [Example 14]
21 |  | 1 to 100 | COc1cccc(-c2ccc3c(c2)CCN(CC(=O)Nc2cc(Cl)cc(Cl)c2)C3C2CCN(C3CCCC3)CC2)c1 (stereo not shown) [Example 6]

More lines, now with the values behind:

Row | Compound | Ki [1] [nM] | Ki [2] [nM]
22 | N#Cc1cccc(-c2ccc3c(c2)CCN(CC(=O)Nc2cc(Cl)cc(Cl)c2)C3C2CCN(C3CCSC3)CC2)c1 (stereo not shown) [Example 25] | 7 | 
23 | CN(C)S(=O)(=O)N1CCC(C2c3ccc(-c4cccc(C#N)c4)cc3CCN2CC(=O)Nc2cc(Cl)cc(Cl)c2)CC1 (stereo not shown) [Example 37] |  | 100 to 500
24 | CN1CCC(N2CCC(C3c4ccc(-c5cccc(C#N)c5)cc4CCN3CC(=O)Nc3cc(Cl)cc(Cl)c3)CC2)CC1 (stereo not shown) [Example 23] |  | 1 to 100
25 | N#Cc1cccc(-c2ccc3c(c2)CCN(Cc2nc4cc(Cl)c(Cl)cc4[nH]2)C3C2CCN(Cc3ccccc3)CC2)c1 (stereo not shown) [Example 43] |  | 1 to 100
26 | N#Cc1cccc(-c2ccc3c(c2)CCN(CC(=O)Nc2cc(Cl)cc(Cl)c2)C3C2CCNCC2)c1 (stereo not shown) [Example 20] | 26 | 
27 | CC(=O)N1CCC(C2c3ccc(-c4cccc(C#N)c4)cc3CCN2CC(=O)Nc2cc(Cl)cc(Cl)c2)CC1 (stereo not shown) [Example 35] |  | > 500
28 | N#Cc1cccc(-c2ccc3c(c2)CCN(CC(=O)Nc2cc(Cl)cc(Cl)c2)C3C2CCN(CCCCCO)CC2)c1 (stereo not shown) [Example 21] | 6.8 | 
29 | COc1ccccc1CN1CCC(C2c3ccc(-c4cccc(C#N)c4)cc3CCN2CC(=O)Nc2cc(Cl)cc(Cl)c2)CC1 (stereo not shown) [Example 27] | 16 | 
30 | CS(=O)(=O)N1CCC(C2c3ccc(-c4cccc(C#N)c4)cc3CCN2CC(=O)Nc2cc(Cl)cc(Cl)c2)CC1 (stereo not shown) [Example 36] |  | > 500
31 | N#Cc1cccc(-c2ccc3c(c2)CCN(Cc2nc4ccccc4[nH]2)C3C2CCN(Cc3ccccc3)CC2)c1 (stereo not shown) [Example 42] |  | 100 to 500
32 | N#Cc1cccc(-c2ccc3c(c2)CCN(C(=O)Nc2cc(Cl)cc(Cl)c2)C3C2CCN(Cc3ccccc3)CC2)c1 (stereo not shown) [Example 40] |  | > 500
33 | N#Cc1cccc(-c2ccc3c(c2)CCN(CC(=O)Nc2cc(Cl)cc(Cl)c2)C3C2CCN(Cc3ccccc3)CC2)c1 (stereo not shown) [Example 19] | 23 | 1 to 100
34 | CN1CCC(C2c3ccc(-c4cccc(C#N)c4)cc3CCN2Cc2nc3cc(Cl)c(Cl)cc3[nH]2)CC1 (stereo not shown) [Example 44] |  | 100 to 500
35 | CC(C)N1CCC(C2c3ccc(-c4cccc(C#N)c4)cc3CCN2CC(=O)Nc2cc(Cl)cc(Cl)c2)CC1 (stereo not shown) [Example 31] |  | 1 to 100
36 | N#Cc1cccc(-c2ccc3c(c2)CCN(C(=O)Nc2ccc(Cl)c(Cl)c2)C3C2CCN(Cc3ccccc3)CC2)c1 (stereo not shown) [Example 41] |  | > 500
37 | N#Cc1cccc(-c2ccc3c(c2)CCN(CC(=O)Nc2cc(Cl)cc(Cl)c2)C3C2CCN(Cc3nccs3)CC2)c1 (stereo not shown) [Example 38] |  | 100 to 500
38 | CCS(=O)(=O)N1CCC(C2c3ccc(-c4cccc(C#N)c4)cc3CCN2CC(=O)Nc2cc(Cl)cc(Cl)c2)CC1 (stereo not shown) [Example 39] |  | > 500
39 | N#Cc1cccc(-c2ccc3c(c2)CCN(CC(=O)Nc2cc(Cl)cc(Cl)c2)C3C2CCN(CC3CC3)CC2)c1 (stereo not shown) [Example 28] | 9.3 | 
40 | CN1CCC(C2c3ccc(-c4cccc(C#N)c4)cc3CCN2CC(=O)Nc2cc(Cl)cc(Cl)c2)CC1 (stereo not shown) [Example 17] | 22 | 
41 | CCN(CC)C(=O)N1CCC(C2c3ccc(-c4cccc(C#N)c4)cc3CCN2CC(=O)Nc2cc(Cl)cc(Cl)c2)CC1 (stereo not shown) [Example 34] |  | 100 to 500
42 | N#Cc1cccc(-c2ccc3c(c2)CCN(Cc2nc4cc(F)c(Cl)cc4[nH]2)C3C2CCN(Cc3ccccc3)CC2)c1 (stereo not shown) [Example 45] |  | 1 to 100
43 | N#Cc1cccc(-c2ccc3c(c2)CCN(CC(=O)Nc2cc(Cl)cc(Cl)c2)C3C2CCN(Cc3ccoc3)CC2)c1 (stereo not shown) [Example 26] | 14 | 
44 | N#Cc1cccc(-c2ccc3c(c2)CCN(CC(=O)Nc2cc(Cl)cc(Cl)c2)C3C2CCN(CCCc3ccccc3)CC2)c1 (stereo not shown) [Example 30] |  | 1 to 100
45 | N#Cc1cccc(-c2ccc3c(c2)CCN(CC(=O)Nc2cc(Cl)cc(Cl)c2)C3C2CCN(C(=O)C3CCCC3)CC2)c1 (stereo not shown) [Example 33] |  | > 500
